Test results reported in PubChem BioAssay (NCI).
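Assay format: 96-well plates, 48-hour exposure. Definition used: TGI = concentration required for complete inhibition of growth.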

What was measured:
Assay in all cases: NCI anticancer screen, dose series, 48 h
LOX IMVI melanoma = system: LOX IMVI melanoma
ACHN renal = system: ACHN renal
UACC-62 melanoma = system: UACC-62 melanoma
HCT-15 colon = system: HCT-15 colon
HCT-116 colon = system: HCT-116 colon
A498 renal = system: A498 renal
NCI-H226 lung = system: NCI-H226 lung
RPMI-8226 leukemia = system: RPMI-8226 leukemia
SK-MEL-5 melanoma = system: SK-MEL-5 melanoma
NCI-H460 lung = system: NCI-H460 lung
HOP-18 NSCLC = system: HOP-18 NSCLC
SK-MEL-2 melanoma = system: SK-MEL-2 melanoma
SF-539 CNS = system: SF-539 CNS
SF-295 CNS = system: SF-295 CNS
SK-MEL-28 melanoma = system: SK-MEL-28 melanoma
UO-31 renal = system: UO-31 renal
NCI-H23 lung = system: NCI-H23 lung
SW-620 colon = system: SW-620 colon
IGROV1 ovarian = system: IGROV1 ovarian
MALME-3M melanoma = system: MALME-3M melanoma
HT29 colon = system: HT29 colon
TK-10 renal = system: TK-10 renal
OVCAR-8 ovarian = system: OVCAR-8 ovarian
DLD-1 colon = system: DLD-1 colon
OVCAR-3 ovarian = system: OVCAR-3 ovarian
M19-MEL melanoma = system: M19-MEL melanoma
SNB-19 CNS = system: SNB-19 CNS
LXFL 529 NSCLC = system: LXFL 529 NSCLC
DMS 114 small cell lung = system: DMS 114 small cell lung
COLO 205 colon = system: COLO 205 colon
U251 CNS = system: U251 CNS
SNB-75 CNS = system: SNB-75 CNS
CCRF-CEM leukemia = system: CCRF-CEM leukemia
RXF-631 renal = system: RXF-631 renal
EKVX NSCLC = system: EKVX NSCLC
SK-OV-3 ovarian = system: SK-OV-3 ovarian
HOP-92 NSCLC = system: HOP-92 NSCLC
SNB-78 CNS = system: SNB-78 CNS
SF-268 CNS = system: SF-268 CNS
MOLT-4 leukemia = system: MOLT-4 leukemia
CAKI-1 renal = system: CAKI-1 renal
KM20L2 colon = system: KM20L2 colon
M14 melanoma = system: M14 melanoma
DMS 273 small cell lung = system: DMS 273 small cell lung
HOP-62 NSCLC = system: HOP-62 NSCLC
HL-60(TB) leukemia = system: HL-60(TB) leukemia
SN12C renal = system: SN12C renal
K-562 leukemia = system: K-562 leukemia
NCI-H522 lung = system: NCI-H522 lung
A549 NSCLC = system: A549 NSCLC
RXF 393 renal = system: RXF 393 renal
SR leukemia = system: SR leukemia
786-0 renal = system: 786-0 renal
HCC-2998 colon = system: HCC-2998 colon
KM12 colon = system: KM12 colon
UACC-257 melanoma = system: UACC-257 melanoma
OVCAR-4 ovarian = system: OVCAR-4 ovarian

## COc1ccc(/C(Cl)=C(\C=O)c2ccc(F)cc2)cc1
LOX IMVI melanoma
  TGI: 39.3 µM
ACHN renal
  TGI: 35.6 µM
UACC-62 melanoma
  TGI: 56 µM
HCT-15 colon
  TGI: 31.2 µM
HCT-116 colon
  TGI: 20 µM
A498 renal
  TGI: 52.7 µM
NCI-H226 lung
  TGI: 67.9 µM
RPMI-8226 leukemia
  TGI: 44.6 µM
SK-MEL-5 melanoma
  TGI: 27.9 µM
NCI-H460 lung
  TGI: 20.1 µM
HOP-18 NSCLC
  TGI: 51.7 µM
SK-MEL-2 melanoma
  TGI: 28.6 µM
SF-539 CNS
  TGI: 50.2 µM
SF-295 CNS
  TGI: 31.6 µM
SK-MEL-28 melanoma
  TGI: > 100 µM
UO-31 renal
  TGI: 42.2 µM
NCI-H23 lung
  TGI: 72.9 µM
SW-620 colon
  TGI: > 100 µM
IGROV1 ovarian
  TGI: 53.6 µM
MALME-3M melanoma
  TGI: 48 µM
HT29 colon
  TGI: 27.8 µM
TK-10 renal
  TGI: > 100 µM
OVCAR-8 ovarian
  TGI: > 100 µM
DLD-1 colon
  TGI: 50.3 µM
OVCAR-3 ovarian
  TGI: 58 µM
M19-MEL melanoma
  TGI: 79.4 µM
SNB-19 CNS
  TGI: > 100 µM
LXFL 529 NSCLC
  TGI: 61.6 µM
DMS 114 small cell lung
  TGI: 45.1 µM
COLO 205 colon
  TGI: 31.9 µM
U251 CNS
  TGI: 23.5 µM
SNB-75 CNS
  TGI: 8.33 µM
CCRF-CEM leukemia
  TGI: 18.7 µM
RXF-631 renal
  TGI: 80.6 µM
EKVX NSCLC
  TGI: > 100 µM
SK-OV-3 ovarian
  TGI: 77.1 µM
HOP-92 NSCLC
  TGI: 19.1 µM
SNB-78 CNS
  TGI: 53.1 µM
SF-268 CNS
  TGI: 89.3 µM
MOLT-4 leukemia
  TGI: 50.9 µM
CAKI-1 renal
  TGI: 41 µM
KM20L2 colon
  TGI: 20.5 µM
M14 melanoma
  TGI: > 100 µM
DMS 273 small cell lung
  TGI: 56.4 µM
HOP-62 NSCLC
  TGI: 59.3 µM
HL-60(TB) leukemia
  TGI: 9.12 µM
SN12C renal
  TGI: 64.7 µM
K-562 leukemia
  TGI: > 100 µM
NCI-H522 lung
  TGI: 24.8 µM

## CN(C)C(=O)CC(C(=O)O)c1c[nH]c2ccccc12 (centres undefined)
LOX IMVI melanoma
  TGI: > 100 µM
ACHN renal
  TGI: > 100 µM
UACC-62 melanoma
  TGI: > 100 µM
HCT-15 colon
  TGI: > 100 µM
HCT-116 colon
  TGI: > 100 µM
A498 renal
  TGI: > 100 µM
RPMI-8226 leukemia
  TGI: > 100 µM
SK-MEL-5 melanoma
  TGI: > 100 µM
NCI-H460 lung
  TGI: > 100 µM
SK-MEL-2 melanoma
  TGI: > 100 µM
SF-539 CNS
  TGI: > 100 µM
SF-295 CNS
  TGI: > 100 µM
UO-31 renal
  TGI: 41.6 µM
NCI-H23 lung
  TGI: > 100 µM
SW-620 colon
  TGI: > 100 µM
A549 NSCLC
  TGI: > 100 µM
RXF 393 renal
  TGI: > 100 µM
IGROV1 ovarian
  TGI: > 100 µM
MALME-3M melanoma
  TGI: > 100 µM
HT29 colon
  TGI: > 100 µM
TK-10 renal
  TGI: > 100 µM
OVCAR-8 ovarian
  TGI: > 100 µM
DLD-1 colon
  TGI: > 100 µM
OVCAR-3 ovarian
  TGI: > 100 µM
M19-MEL melanoma
  TGI: > 100 µM
SNB-19 CNS
  TGI: > 100 µM
SR leukemia
  TGI: > 100 µM
LXFL 529 NSCLC
  TGI: > 100 µM
DMS 114 small cell lung
  TGI: > 100 µM
786-0 renal
  TGI: > 100 µM
COLO 205 colon
  TGI: > 100 µM
U251 CNS
  TGI: > 100 µM
SNB-75 CNS
  TGI: > 100 µM
CCRF-CEM leukemia
  TGI: > 100 µM
RXF-631 renal
  TGI: > 100 µM
EKVX NSCLC
  TGI: > 100 µM
HCC-2998 colon
  TGI: > 100 µM
MOLT-4 leukemia
  TGI: > 100 µM
CAKI-1 renal
  TGI: > 100 µM
KM20L2 colon
  TGI: > 100 µM
M14 melanoma
  TGI: > 100 µM
DMS 273 small cell lung
  TGI: > 100 µM
KM12 colon
  TGI: > 100 µM
UACC-257 melanoma
  TGI: > 100 µM
HOP-62 NSCLC
  TGI: > 100 µM
HL-60(TB) leukemia
  TGI: > 100 µM
SN12C renal
  TGI: > 100 µM
OVCAR-4 ovarian
  TGI: > 100 µM
K-562 leukemia
  TGI: > 100 µM
NCI-H522 lung
  TGI: > 100 µM
